{
  "source": "patent US20080103105A1",
  "about": "“HMG CoA REDUCTASE MEDIATED MODULATION OF NEUROGENESIS” (BrainCells, Inc., priority 2006, published 2008)",
  "key": {"[1]": {"system": "Human neural stem cells (hNSCs)", "test": "Neuronal differentiation of human neural stem cells (TUJ-1 staining)", "assay_type": "cell-based", "details": "for EC50: agent alone", "from_the_text": "In one non-limiting example neurogenesis, a neurogenic response, and neurodifferentiation are all measured in an in vitro assay as follows. Human neural stem cells (hNSCs) are isolated and grown in monolayer culture, plated, treated with varying concentrations of a first neurogenic agent, or a combination of a first neurogenic agent with one or more additional neurogenic agents (test compound), and stained with TUJ-1 antibody to identify neurons and/or GFAP to identify astrocytes, as described in PCT Application No. US06/026677. Mitogen-free test media with a positive control is used for neuronal differentiation, and basal media without growth factors serves as a negative control. Neurogenesis is determined, for example, by measuring the proliferation and/or differentiation of the hNSCs in the presence of varying concentrations of test compound compared to the absence of the test compound (negative control). A neurogenic response is measured, for example, in a similar manner to neurogenesis, except that astrogenesis is also measured and the ratio of neurogenesis to astrogenesis is determined to measure the neurogenic response. Neurodifferentiation is measured, for example, by detecting neurodifferentiation specific expression markers which methods are known in the art.\n(§1) Human neural stem cells (hNSCs) were isolated and grown in monolayer culture, plated, treated with varying concentrations of atorvastatin (test compound), and stained with TUJ-1 antibody, as described in U.S. Provisional Application No. 60/697,905 (U.S. Patent Publication 2007/0015138). Mitogen-free test media with a positive control for neuronal differentiation was used along with basal media without growth factors as a negative control.\nas §1, with “in the presence or absence of buspirone,” for “(test compound),”, “antibody for the detection of neuronal differentiation or GFAP antibody for the detection of astrocyte differentiation,” for “antibody,”\nas §1, with “in the presence or absence of ribavirin,” for “(test compound),”, “antibody for the detection of neuronal differentiation or GFAP antibody for the detection of astrocyte differentiation,” for “antibody,”\nas §1, with “in the presence or absence of tacrine,” for “(test compound),”, “antibody for the detection of neuronal differentiation or GFAP antibody for the detection of astrocyte differentiation,” for “antibody,”\nHuman neural stem cells (hNSCs) were isolated and grown in monolayer culture, plated, treated with varying concentrations of atorvastatin in the presence or absence of azakenpaullone, and stained with TUJ-1 antibody for the detection of neuronal differentiation or GFAP antibody for the detection of astrocyte differentiation, as described in U.S. Provisional Application No. 60/697,905 (U.S. Patent Publication 2007/0015138). […]"}, "mGluR2": {"target": "mGluR2 (Homo sapiens, UniProt Q14416)", "sequence (Q14416 19-872)": "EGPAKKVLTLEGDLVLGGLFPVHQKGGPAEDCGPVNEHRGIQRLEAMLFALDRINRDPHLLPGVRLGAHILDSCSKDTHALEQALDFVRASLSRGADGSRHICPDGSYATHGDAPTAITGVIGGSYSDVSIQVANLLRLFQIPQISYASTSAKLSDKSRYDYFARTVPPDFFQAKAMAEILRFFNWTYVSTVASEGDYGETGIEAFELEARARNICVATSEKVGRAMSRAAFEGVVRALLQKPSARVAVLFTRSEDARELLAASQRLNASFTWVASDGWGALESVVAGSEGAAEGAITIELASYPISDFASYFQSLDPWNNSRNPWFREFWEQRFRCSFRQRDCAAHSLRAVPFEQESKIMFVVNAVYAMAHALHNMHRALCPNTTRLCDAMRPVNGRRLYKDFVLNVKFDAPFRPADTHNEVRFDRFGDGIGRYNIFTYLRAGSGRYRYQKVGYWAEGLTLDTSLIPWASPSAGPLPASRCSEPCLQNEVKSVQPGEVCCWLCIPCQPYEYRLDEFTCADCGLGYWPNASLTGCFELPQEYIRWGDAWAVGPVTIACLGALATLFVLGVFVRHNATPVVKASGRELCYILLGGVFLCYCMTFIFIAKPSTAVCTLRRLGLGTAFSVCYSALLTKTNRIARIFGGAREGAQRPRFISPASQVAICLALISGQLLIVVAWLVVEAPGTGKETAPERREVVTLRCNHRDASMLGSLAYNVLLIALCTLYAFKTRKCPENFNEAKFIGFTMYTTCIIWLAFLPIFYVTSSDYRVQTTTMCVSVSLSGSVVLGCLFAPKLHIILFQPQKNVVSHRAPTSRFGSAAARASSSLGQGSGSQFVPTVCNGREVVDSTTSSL", "details": "read-out: IC50 against mGluR2; cited from earlier work"}, "mGluR3": {"target": "mGluR3 (Homo sapiens, UniProt Q14832)", "sequence (Q14832 23-879)": "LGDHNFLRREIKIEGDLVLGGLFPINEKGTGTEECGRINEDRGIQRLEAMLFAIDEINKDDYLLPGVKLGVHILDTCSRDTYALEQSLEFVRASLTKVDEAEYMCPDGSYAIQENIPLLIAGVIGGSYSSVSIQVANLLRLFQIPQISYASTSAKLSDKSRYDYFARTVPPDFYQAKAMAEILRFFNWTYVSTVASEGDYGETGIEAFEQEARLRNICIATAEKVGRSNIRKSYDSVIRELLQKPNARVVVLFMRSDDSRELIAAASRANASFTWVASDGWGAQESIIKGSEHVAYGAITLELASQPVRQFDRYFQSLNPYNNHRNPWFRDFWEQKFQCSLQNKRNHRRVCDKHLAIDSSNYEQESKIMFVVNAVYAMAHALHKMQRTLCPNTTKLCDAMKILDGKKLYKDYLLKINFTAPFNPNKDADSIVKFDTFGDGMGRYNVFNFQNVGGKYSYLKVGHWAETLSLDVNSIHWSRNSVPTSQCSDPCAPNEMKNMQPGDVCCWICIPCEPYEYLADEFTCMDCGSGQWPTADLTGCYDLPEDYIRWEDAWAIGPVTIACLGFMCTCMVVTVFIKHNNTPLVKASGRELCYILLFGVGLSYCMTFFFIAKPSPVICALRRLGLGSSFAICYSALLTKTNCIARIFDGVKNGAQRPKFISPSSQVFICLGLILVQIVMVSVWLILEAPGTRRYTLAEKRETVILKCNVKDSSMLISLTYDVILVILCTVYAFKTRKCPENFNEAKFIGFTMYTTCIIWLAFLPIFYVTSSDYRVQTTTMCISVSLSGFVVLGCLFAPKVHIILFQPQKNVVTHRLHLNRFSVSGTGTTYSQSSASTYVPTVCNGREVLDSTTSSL", "details": "read-out: IC50 against mGluR3; cited from earlier work"}, "[2]": {"system": "Group I and Group III receptors", "details": "at sub-mM concentrations; cited from earlier work"}, "[3]": {"system": "KA, AMPA, and NMDA iGlu receptors", "details": "cited from earlier work"}, "[4]": {"system": "BrdU positive cells within the granule cell layer of the dentate gyrus", "protocol": "Male F344 rats were dosed 1× per day for 28-days with vehicle (n=12 per dose group, p.o.), 5.0 mg/kg fluoxetine (n=12 per dose group, p.o.), 15.0 mg/kg fluoxetine (n=12 per dose group, p.o.), 10.0 mg/kg atorvastatin (n=12 per dose group, p.o.) or the combination of fluoxetine (5.0 mg/kg, p.o.)+atorvastatin (10.0 mg/kg, p.o.).\nMale F344 rats were dosed 1× per day for 21-days with 0 (vehicle only), 5.0 mg/kg fluoxetine (n=12 per dose group, p.o.), 15.0 mg/kg fluoxetine (n=12 per dose group, p.o.), 10.0 mg/kg atorvastatin (n=12 per dose group, p.o.) or the combination of fluoxetine (5.0 mg/kg, p.o.)+atorvastatin (10.0 mg/kg, p.o.). BrdU was administered once daily between days 9 and 14 (100 mg/kg/day, i.p., n=12 per dose group). […] Data are presented as percent change in BrdU positive cells per cubic mm dentate gyrus. […] Data are presented as the percentage of cells colabeled for BrdU and the mature neuronal marker NeuN within the dentate gyrus."}, "human mGlu3": {"target": "human mGlu3 (Homo sapiens, UniProt Q14832)", "sequence (Q14832 23-879)": "as above", "details": "low nanomolar range; read-out: EC50 against human mGlu3 receptors in vitro; cited from earlier work"}, "human mGlu2": {"target": "human mGlu2 (Homo sapiens, UniProt Q14416)", "sequence (Q14416 19-872)": "as the sequence (Q14416 19-872) above", "details": "low nanomolar range; read-out: EC50 against human mGlu2 receptors in vitro; cited from earlier work"}, "[5]": {"details": "Homo sapiens, Neural stem cell, percentage of neuronal positive control, basal media values subtracted, read-out: EC50, neuronal differentiation, agent used alone"}, "[6]": {"details": "Homo sapiens, Neural stem cell, maximum fixed to 120% for all conditions, read-out: EC50, neuronal differentiation, agent alone, maximum percent of positive control fixed to a common 120%"}},
  "note": "Like-named read-outs stand apart in the source and are kept apart here.",
  "data": [
    {"smiles": "Nc1c2c(nc3ccccc13)CCCC2", "note": "[tacrine]", "values": [
      {"measurement": "EC50", "setting": "[1]; [5]", "value": 7.4, "unit": "µM"}
    ]},
    {"smiles": "NC(=O)c1ncn([C@@H]2O[C@H](CO)[C@@H](O)[C@H]2O)n1", "note": "[ribavirin]", "values": [
      {"measurement": "EC50", "setting": "[1]; [5]", "value": 3.8, "unit": "µM"}
    ]},
    {"smiles": "Clc1ccc2c(c1)N=C(N1CCNCC1)c1ccccc1N2", "note": "[N-desmethylclozapine]", "values": [
      {"measurement": "neurogenic activity in assays as disclosed herein", "setting": "[1]", "value": "highly neurogenic"}
    ]},
    {"smiles": "NC1(C(=O)O)CCc2cc(P(=O)(O)O)ccc21", "note": "(racemic) [APICA, (RS)-1-amino-5-phosphonoindan-1-carboxylic acid]", "values": [
      {"measurement": "IC50", "setting": "mGluR2", "value": "~30", "unit": "µM"},
      {"measurement": "IC50", "setting": "mGluR3", "value": "~30", "unit": "µM"},
      {"measurement": "activity against Group I or Group III receptors", "setting": "[2]", "value": "no appreciable activity"}
    ]},
    {"smiles": "N[C@](CC1c2ccccc2Oc2ccccc21)(C(=O)O)[C@H]1C[C@@H]1C(=O)O", "note": "[LY341495, (2S)-2-amino-2-(1S,2S-2-carboxycycloprop-1-yl)-3-(xanth-9-yl) propanoic acid]", "values": [
      {"measurement": "activity against KA, AMPA, and NMDA iGlu receptors", "setting": "[3]", "value": "substantially inactive"}
    ]},
    {"smiles": "CC(C)c1c(C(=O)Nc2ccccc2)c(-c2ccccc2)c(-c2ccc(F)cc2)n1CC[C@@H](O)C[C@@H](O)CC(=O)O", "note": "[atorvastatin]", "values": [
      {"measurement": "number of BrdU positive cells (percent change per cubic mm dentate gyrus)", "setting": "[4]; 10.0 mg/kg atorvastatin p.o. 1× per day", "value": "significantly increased"},
      {"measurement": "number of new neurons within the granule cell layer of the dentate gyrus", "setting": "[4]; atorvastatin 10.0 mg/kg p.o. alone or with fluoxetine 5.0 mg/kg p.o., 1× per day", "value": "significant increase"},
      {"measurement": "EC50", "setting": "[1]; [6]", "value": 0.004, "unit": "µM"},
      {"measurement": "EC50", "setting": "[1]; percentage of neuronal positive control, basal media values subtracted, read-out: EC50, neuronal differentiation, agent used alone", "value": 0.0031, "unit": "µM"},
      {"measurement": "neuronal differentiation, result in words", "setting": "[1]; percent of neuronal positive control, combination relative to either agent alone", "value": "promoted neuronal differentiation"}
    ]},
    {"smiles": "O=C1CC2(CCCC2)CC(=O)N1CCCCN1CCN(c2ncccn2)CC1", "note": "[buspirone]", "values": [
      {"measurement": "EC50", "setting": "[1]; [5]", "value": 5.8, "unit": "µM"}
    ]},
    {"smiles": "NC1(C(=O)O)COC2C(C(=O)O)C21", "note": "(single isomer, unassigned; (-)) [LY379268, (−)-2-Oxa-4-aminobicyclohexane-4,6-dicarboxylic acid]", "values": [
      {"measurement": "EC50", "setting": "human mGlu3", "value": "< 10", "unit": "nM"},
      {"measurement": "EC50", "setting": "human mGlu2", "value": "< 10", "unit": "nM"}
    ]},
    {"smiles": "Nc1nc2ncc(CNc3ccc(C(=O)N[C@@H](CCC(=O)O)C(=O)O)cc3)nc2c(=O)[nH]1", "note": "[folic acid]", "values": [
      {"measurement": "EC50", "setting": "[1]; [5]", "value": 4.8, "unit": "µM"}
    ]},
    {"smiles": "NCCc1c[nH]c2ccc(O)cc12", "note": "[serotonin]", "values": [
      {"measurement": "EC50", "setting": "[1]; [5]", "value": 4.5, "unit": "µM"}
    ]},
    {"smiles": "O=C1Cc2c([nH]c3ccc(Br)cc23)-c2ncccc2N1", "note": "[azakenpaullone]", "values": [
      {"measurement": "EC50", "setting": "[1]; [6]", "value": 0.33, "unit": "µM"},
      {"measurement": "EC50", "setting": "[1]; [5]", "value": 1.1, "unit": "µM"},
      {"measurement": "maximum percent of positive control neuronal differentiation", "setting": "[1]; addition of azakenpaullone", "value": "greater than 100%"}
    ]}
  ]
}
